Measurements reported in patent US20240173317A1, “METHODS FOR TREATING PROGRESSIVE FAMILIAL INTRAHEPATIC CHOLESTASIS” (MIRUM PHARMACEUTICALS, INC., priority 2022, published 2024).

What was measured:
[1] = test system: subjects with PFIC; test: Total and direct bilirubin, MARCH-PFIC Phase 3 study
Text: Estimates are from a mixed model for repeated measures (MMRM) with change from baseline as the dependent variable and fixed categorical effects of treatment group, time period and treatment-by-time period interaction as well as the continuous fixed covariates of average baseline score and baseline score-by-time period interaction. […] Average of time periods Weeks 15-18, 19-22, and 2326 obtained from the MMRM as an equally weighted average of the 3 individual visit-specific estimates.
Methods: MARCH enrolled patients with a genetic diagnosis of PFIC, pruritus, and elevated sBA. Patients were randomized to MRX 57011 g/kg BID or placebo (PBO) for 26 weeks. Changes were determined as the difference between MRX and PBO groups for Change from Baseline (CFB) to the average of the final 3 measurements (Weeks 18, 22 and 26) using a mixed-effects model with recurrent measurements. Total/direct bilirubin (TB/DB) categories were defined as normal (≤1.2/0.3 mg/dL) or abnormal (>1.2/0.3 mg/dL).

[2] = test system: patients with a truncated BSEP (t-BSEP) deficiency; test: sBA in individual t-BSEP patients (week 26 and week 58 of treatment); assay type: in vivo, human
[3] = test system: subjects with PFIC; test: ItchRO(Obs) pruritus severity, MARCH-PFIC Phase 3 study; assay type: in vivo, human; conditions: for percentage of pruritus response (ItchRO(Obs) responders): Week 15 to Week 26
Protocol: The primary analysis was conducted in the intent-to-treat (ITT) population of subjects with documented biallelic mutations in ABCB11 (PFIC 2), based on standard-of-care genotyping (primary cohort criteria). Subjects with a predicted complete absence of bile salt excretion pump (BSEP) function based on the type of ABCB11 mutation (PFIC 2), as determined by a standard-of-care genotype, were excluded from the primary cohort and could enroll only in the supplemental cohort. Subjects with other PFIC subtypes (e.g., PFIC 1/3/4/5/6, or new PFIC mutation variants) or postsurgical subjects (e.g., after internal or external biliary diversion surgery or subjects with reversal of biliary diversion surgery) were enrolled in a separate supplemental cohort and evaluated as part of secondary and exploratory analyses.
Subjects in the primary cohort were randomized in a 1:1 ratio to receive maralixibat or placebo. Subjects in the supplemental cohort were randomized in a 1:1 ratio to receive maralixibat or placebo within the following subcohorts: a) PFIC 1; b) PFIC 3; c) all other supplemental cohort subjects. All subjects received study treatment in addition to standard-of-care therapy, including antipruritic concomitant treatment.
For subjects assigned to maralixibat, the Dose Escalation period consisted of the following weekly steps: Dose level 1, 150 μg/kg maralixibat BID for 1 week; Dose level 2, 300 μg/kg maralixibat BID for 1 week; Dose level 3, 450 μg/kg maralixibat BID for 1 week; Dose level 4, 600 μg/kg maralixibat BID for the remaining duration of the study.
Efficacy. Severity of pruritus was assessed using the Itch caregiver/patient reported outcome measure (ItchRO™) administered as a twice daily electronic diary. Caregivers for all subjects completed the Observer instrument: ItchRO(Obs). The ItchRO(Obs) was completed by the same caregiver for consistency, whenever possible. Only subjects ≥9 years of age at screening completed the patient instrument: ItchRO(Pt). […] Pruritus was assessed and recorded twice daily, via ItchRO, beginning with the day after the screening visit and every day throughout the duration of the study. The severity of pruritus was measured by the completion of the first question in the ItchRO(Obs) (how severe were your child's itch-related symptoms) or ItchRO(Pt) (how itchy did you feel). The frequency of pruritus was measured by completion of the third question in the ItchRO(Obs) (how much of the time was your child rubbing or scratching) or ItchRO(Pt) (how much of last night/today did feeling itchy make you rub or scratch). Caregivers and subjects rated the severity and frequency of pruritus using 5 choices to describe their itching condition. ItchRO(Pt) and ItchRO(Obs) have been previously described in Kamath, et al., “Development of a Novel Tool to Assess the Impact of Itching in Pediatric Cholestasis,” Patient, 11:69-82 (2018), which is hereby incorporated by reference in its entirety for all purposes.
For this study, the primary estimand is the improvement in pruritus measured as change from baseline in the average morning ItchRO(Obs) severity score in the maralixibat treatment group relative to the placebo group. The primary analysis on the primary efficacy endpoint was conducted in 1) participants with PFIC 2 who fulfill criteria for the primary cohort in the ITT population (non-truncated primary “B SEP cohort” or “Primary cohort” with N=31), 2) all PFIC participants (excluding the participants with prior history of surgery, heterozygous participants and unknown types, “All PFIC cohort” or “PFIC cohort” with N=64), and 3) all study participants cohort, including the participants with prior history of surgery, heterozygous participants and unknown types. A restricted maximum likelihood (REML)-based mixed-effects model for repeated measures […] was used as the primary analysis method. […]

[4] = BSEP deficiency cohort, FIG. 20A
[5] = BSEP deficiency cohort, FIG. 22A
[6] = MRX group, post-hoc analysis, FIG. 38A-B
[7] = individuals with abnormal Baseline bilirubin, FIG. 37B
[8] = All PFIC cohort, Weeks 15-26, FIG. 6B
[9] = BSEP deficiency cohort, FIG. 7A
[10] = BSEP deficiency cohort, FIG. 7B
[11] = BSEP deficiency cohort, FIG. 17A
[12] = BSEP deficiency cohort, Weeks 15-26, FIG. 6A

With `CCCCC1(CCCC)CS(=O)(=O)c2ccc(N(C)C)cc2[C@@H](c2ccc(OCc3ccc(C[N+]45CCN(CC4)CC5)cc3)cc2)[C@H]1O` [maralixibat, 1-(4-((4-((4R,5R)-3,3-dibutyl-7-(dimethylamino)-4-hydroxy-1,1-dioxido-2,3,4,5-tetrahydrobenzo[b]thiepin-5-yl)phenoxy)methyl)benzyl)-1,4-diazabicyclo[2.2.2]octan-1-ium] the “CFB in total bilirubin (TB)” value ([1]; All-PFIC cohort (MRX n = 33), average of Weeks 18, 22 and 26, FIG. 36A) was -1.1 mg/dL, the “CFB in direct bilirubin (DB)” value ([1]; All-PFIC cohort (MRX n = 33), average of Weeks 18, 22 and 26, FIG. 36B) was -0.8 mg/dL and the “TB group difference MRX vs PBO” value ([1]; All-PFIC cohort, average of Weeks 18, 22 and 26, FIG. 36A) was 2.0. The “DB group difference MRX vs PBO” value ([1]; All-PFIC cohort, average of Weeks 18, 22 and 26, FIG. 36B) was 1.5, the “difference in total bilirubin improvement vs placebo group” value [1, 4] was 1.585 mg/dL and the “improvement in (reduction of) total bilirubin relative to baseline” value [1, 4] was “about 1.2 mg/dL”. The “difference in direct bilirubin improvement vs placebo group” value [1, 5] was 1.196 mg/dL, the “improvement in (reduction of) direct bilirubin relative to baseline” value [1, 5] was “over 0.8 mg/dL” and the “TB normalized, patients / patients with abnormal Baseline values” [1, 6] was 10/25. The “patients who went from normal to abnormal TB” value [1, 6] was 0/7, the “DB frequency of normalization” value ([1]; MRX group, post-hoc analysis, normal ≤0.3 mg/dL, FIG. 39) was 38% and the “TB normalized, % of patients with abnormal Baseline values” ([1]; MRX group, post-hoc analysis, normal ≤1.2 mg/dL, FIG. 38A-B) was 40%. The “difference in total bilirubin improvement vs placebo group” value ([1]; PFIC cohort, FIG. 20B) was 2.000 mg/dL, the “improvement in (reduction of) total bilirubin relative to baseline” value ([1]; PFIC cohort, FIG. 20B) was “about 1.2 mg/dL” and the “difference in direct bilirubin improvement vs placebo group” value ([1]; PFIC cohort, FIG. 22B) was 1.608 mg/dL. For the same molecule, the “improvement in (reduction of) direct bilirubin relative to baseline” value ([1]; PFIC cohort, FIG. 22B) was “about 0.9 mg/dL”, the “total bilirubin lower than baseline over time” value ([1]; Week 18 and later points in time, FIG. 21A-B) was “at least 1.0 mg/dL” and the “direct bilirubin lower than baseline over time” value ([1]; Week 18 and later points in time, FIG. 23A-B) was “at least 1.0 mg/dL”. For the same molecule, the “CFB in direct bilirubin (DB)” value [1, 7] was -0.8 mg/dL, the “DB group difference MRX vs PBO” value [1, 7] was −1.8 and the “sBA change in individual t-BSEP patients” value ([2]; Baseline to Week 26, FIG. 42D) was “reductions from Baseline to Week 26 in sBA”. For the same molecule, the “sBA reduction in individual t-BSEP patients” value ([2]; all patients receiving maralixibat (MRX-MRX) or switching from placebo (PBO-MRX), Table 15) was “meaningful sBA reduction”, the “difference from the placebo group, evening ItchRO[Obs] score” value ([3]; All PFIC cohort, FIG. 8A) was 1.157 point and the “reduction from baseline in pruritus evening ItchRO[Obs] score” value ([3]; All PFIC cohort, FIG. 8A) was 1.8 points. The “difference from the placebo group, maximum daily ItchRO[Obs] score” value ([3]; All PFIC cohort, FIG. 8B) was 1.198 point, the “reduction from baseline in maximum pruritus daily ItchRO[Obs] score” value ([3]; All PFIC cohort, FIG. 8B) was 1.9 points and the “percentage of pruritus response (ItchRO(Obs) responders)” value ([3]; All PFIC cohort, FIG. 14A) was 63.6%. The “difference from the placebo group, morning ItchRO[Obs] score” value (“difference … morning ItchRO[Obs] score” below) [3, 8] was 1.20 point, the “reduction from baseline in pruritus morning ItchRO[Obs] score” value [3, 8] was 1.8 points and the “median proportion of reported days with an ItchRO(Obs) score of 0-1” value ([3]; All-PFIC (MRX n = 33), Weeks 15-26) was 95%. For the same molecule, the “difference from the placebo group, evening ItchRO[Obs] score” value [3, 9] was 1.111 point, the “reduction from baseline in pruritus evening ItchRO[Obs] score” value [3, 9] was 1.7 points and the “difference from the placebo group, maximum daily ItchRO[Obs] score” value [3, 10] was 1.130 point. The “reduction from baseline in maximum pruritus daily ItchRO[Obs] score” value [3, 10] was 1.8 points, the “difference vs placebo in proportion of pruritus responders (assessments ≤1)” value ([3]; BSEP deficiency cohort, FIG. 16A) was 0.344 and the “difference vs placebo in proportion of pruritus responders (assessments ≤1 or decrease ≥1)” value [3, 11] was 0.398. For the same molecule, the “proportion of pruritus responders: proportion of assessments ≤1 or decrease ≥1” value [3, 11] was “over 0.7”, the “percentage of pruritus response (ItchRO(Obs) responders)” value ([3]; BSEP deficiency cohort, FIG. 13A) was 57.1% and the “difference … morning ItchRO[Obs] score” value [3, 12] was 1.089 point. The “reduction from baseline in pruritus morning ItchRO[Obs] score” value [3, 12] was 1.7 points, the “proportion of pruritus responders: proportion of assessments ≤1” value ([3]; BSEP deficiency cohort, morning and evening, FIG. 16A) was “over 0.6” and the “difference … morning ItchRO[Obs] score” value ([3]; FIC1 (PFIC 1) cohort, FIG. 9A) was 1.136 point. The “reduction from baseline in pruritus morning ItchRO[Obs] score” value ([3]; FIC1 (PFIC 1) cohort, FIG. 9A) was 1.4 points, the “improvements in pruritus (weekly ItchRO(Obs) score)” value ([3]; FIC1, MDR3, TJP2, MYO5B cohorts, FIG. 33A-B) was “statistically significant and clinically meaningful improvements” and the “difference … morning ItchRO[Obs] score” value ([3]; MDR3 (PFIC 3) cohort, FIG. 9B) was 0.594 point. For the same molecule, the “reduction from baseline in pruritus morning ItchRO[Obs] score” value ([3]; MDR3 (PFIC 3) cohort, FIG. 9B) was 1.8 points, the “difference vs placebo in proportion of pruritus responders (assessments ≤1)” value ([3]; PFIC cohort, Baseline to Week 26, FIG. 16B, 27B) was 0.345 and the “difference vs placebo in proportion of pruritus responders (assessments ≤1 or decrease ≥1)” value ([3]; PFIC cohort, FIG. 17B) was 0.380. The “proportion of pruritus responders: proportion of assessments ≤1 or decrease ≥1” value ([3]; PFIC cohort, FIG. 17B) was “over 0.7”, the response to treatment ([3]; PFIC patients post surgery (full population)) was “significant response” and the “improvements in pruritus severity” value ([3]; full-study population, FIG. 35A) was “statistically significant and clinically meaningful improvements”. The improvements in pruritus ([3]; patients with no-variant found, FIG. 35C) was “demonstrated improvements” and the “pruritus change in individual t-BSEP patients (morning ItchRO(Obs))” value ([3]; t-BSEP (truncated PFIC2) patients, Baseline to Week 26, FIG. 41D) was “limited improvement in pruritus”.
